Experimental findings from patent EP3797781A1, “USE OF EC-7072 AND SYNERGIC COMPOSITIONS THEREOF IN TREATMENT OF CHRONIC LYMPHOCYTIC LEUKEMIA” (priority 2019, dated 2021) are described below.

SMILES strings stand for the structures.

In data set [1] the test system is healthy B cells. The experiment in a line: Viability of healthy B cells from healthy donors by DiOC6(3)/PI staining. The settings on record: 200 nM, 24 hours; PBMCs from healthy donors (n = 20); Figure 1F. It is filed as cell-based, human. How it is done:
(§1) Cell viability and apoptosis were evaluated by double-staining with the mitochondrial inner transmembrane potential (ΔΨm)-sensitive dye DiOC6(3) (3,3'-dihexyloxacarbocyanine iodide; Sigma-Aldrich) and the exclusion dye propidium iodide (PI; Immunostep), allowing identification of apoptotic [DiOC6(3)^low PI^-] and dead [PI^+] cells as per Proc. Natl. Acad. Sci. U.S.A. (2014) 111(8):3020-3025 and Methods Mol. Biol. (2016) 1419:1-16. Briefly, PBMCs were resuspended in culture medium containing 20 nM DiOC6(3) and incubated for 30 minutes at 37 °C. Then, PI (1 µg/mL) was added and cells were further incubated for 10 minutes at room temperature (RT). Cells were analyzed by flow cytometry considering DiOC6(3)^+PI^- cells as viable. In some experiments, apoptosis was evaluated by staining with Annexin V/PI. […]
The in vitro cytotoxic activity of EC-7072 against primary CLL cells was assessed by: • (i) incubating PBMCs isolated from patients with CLL (n = 13) following treatment with increasing concentrations of EC-7072 (0 - 400 nM) for 24 hours. Numbers of leukemia cells were evaluated by flow cytometry and normalized to their respective control (DMSO) condition for each individual patient to obtain percentage of leukemia cells (Figure 1A); • (ii) incubating PBMCs from patients with CLL (n = 10) with or without EC-7072 (100-400 nM) for 24 hours. […]

The test system of data set [2] is leukemia cells. The experiment in a line: Apoptosis of leukemia cells by Annexin V/PI staining. It is filed as cell-based, human. The settings on record: 0 - 400 nM, 24 hours; PBMCs from patients with CLL (n = 6). How it is done: as §1
The induction of caspase-dependent apoptosis on primary CLL cells by EC-7072 was assessed by: • (i) incubating PBMCs isolated from patients with CLL (n = 6) following treatment with increasing concentrations of EC-7072 (0 - 400 nM) for 24 hours. Apoptosis of leukemia cells was evaluated by cytofluorometric assessment of Annexin V/PI staining to obtain percentages of apoptotic [Annexin V^+ PI^-] and dead [PI^+] cells (Figure 3A); • (ii) incubating PBMCs and T cells isolated from patients with CLL (n = 3) following treatment with EC-7072 (200 nM) for 24 hours. […]

Take `CO[C@@H]([C@@H]1Cc2cc3cc(O[C@H]4C[C@@H](O[C@H]5C[C@@H](O)[C@H](O)[C@@H](C)O5)[C@H](O)[C@@H](C)O4)c(C)c(O)c3c(O)c2C(=O)[C@H]1O[C@H]1C[C@@H](O[C@H]2C[C@@H](O[C@H]3C[C@](C)(O)[C@H](O)[C@@H](C)O3)[C@@H](O)[C@@H](C)O2)[C@H](O)[C@@H](C)O1)[C@@H](O)C(C)=O` [EC-7072, mithramycin SK]: the “viability of healthy B cells” value in data set [1] is “triggered death of normal B cells”. Besides, in data set [2], the “apoptosis of leukemia cells (Annexin V/PI)” value is listed as “significantly induces CLL cell apoptosis”.
